Test results reported in ChEMBL document CHEMBL3603776, “2-Phenoxy-1,4-naphthoquinones: From a Multitarget Antitrypanosomal to a Potential Antitumor Profile” (J Med Chem, 2015).
Calls of active or inactive are those of the source. The rule behind the calls is not given here.

What was measured:
[1] = tested on: Leishmania donovani; test: Antitrypanosomal activity against amastigotes of Leishmania donovani MHOM/ET/67/L82 after 72 hrs by inverted microscope analysis; format: functional, organism-based; conditions: MHOM/ET/67/L82, 72 h
[2] = Selectivity index, ratio of IC50 for rat L6 cells to IC50 for amastigotes of Leishmania donovani MHOM/ET/67/L82; format: toxicity, cell-based; conditions: read-out: Ratio IC50
[3] = tested on: L6; test: Cytotoxicity against rat L6 cells after 72 hrs by alamar blue assay; format: cell-based; conditions: L6, 72 h
[4] = tested on: Trypanosoma brucei; test: Inhibition of recombinant Trypanosoma brucei GAPDH assessed as oxidative phosphorylation of D-glyceraldehyde-3-phosphate to 1,3-bisphosphoglycerate at 5 uM by spectrophotometric method relative to 2-phenoxy-1,4-naphthoquinone
[5] = organism: Bos taurus; test: Inhibition of electron transport protein complex 2 in bovine hear mitochondria assessed as reduction of succinate-induced oxygen consumption at 5 uM
[6] = tested on: Trypanosoma brucei rhodesiense; test: Antitrypanosomal activity against bloodstream forms of Trypanosoma brucei rhodesiense STIB 900 after 72 hrs by alamar blue assay; format: functional, organism-based; conditions: STIB 900, 72 h
[7] = Selectivity index, ratio of IC50 for rat L6 cells to IC50 for bloodstream forms of Trypanosoma brucei rhodesiense STIB 900; format: toxicity, cell-based; conditions: read-out: Ratio IC50
[8] = tested on: Trypanosoma cruzi; test: Antitrypanosomal activity against trypomastigote forms of Trypanosoma cruzi Tulahuen C4 expressing LacZ gene infected in rat L6 cells after 96 hrs by inverted microscope analysis; format: functional, organism-based; conditions: Tulahuen C4, L6, 96 h
[9] = Selectivity index, ratio of IC50 for rat L6 cells to IC50 for trypomastigote forms of Trypanosoma cruzi Tulahuen C4; format: toxicity, cell-based; conditions: read-out: Ratio IC50
[10] = organism: Bos taurus; test: Inhibition of electron transport protein complex 1 in bovine hear mitochondria assessed as enzyme activity per min/mg of protein using […] as substrate at 10 uM
[11] = Inhibition of recombinant Trypanosoma brucei GAPDH assessed as oxidative phosphorylation of D-glyceraldehyde-3-phosphate to 1,3-bisphosphoglycerate by spectrophotometric method
[12] = biological target: Glyceraldehyde-3-phosphate dehydrogenase (Homo sapiens, UniProt P04406); test: Inhibition of recombinant human GAPDH assessed as oxidative phosphorylation of D-glyceraldehyde-3-phosphate to 1,3-bisphosphoglycerate by spectrophotometric method
[13] = Cytotoxicity against HDF after 24 hrs by MTT assay; conditions: Homo sapiens
[14] = tested on: IGROV-1; test: Cytotoxicity against human IGROV1 cells after 24 hrs by MTT assay; format: functional, cell-based; conditions: IGROV-1, 24 h
[15] = tested on: HT-29; test: Cytotoxicity against human HT-29 cells after 24 hrs by MTT assay; format: functional, cell-based; conditions: HT-29, 24 h
[16] = tested on: IGROV-1; test: Selectivity index, ratio of IC50 for HDF to IC50 for human IGROV1 cells
[17] = tested on: HT-29; test: Selectivity index, ratio of IC50 for HDF to IC50 for human HT-29 cells
[18] = organism: Bos taurus; test: Inhibition of electron transport protein complex 1 in bovine hear mitochondria assessed as reduction of NADH-induced oxygen consumption at 5 uM
[19] = organism: Bos taurus; test: Inhibition of electron transport protein complex 1 in bovine hear mitochondria assessed as reduction of NADH-induced ROS production at 10 uM by fluorescence plate reader analysis

Chain of Glyceraldehyde-3-phosphate dehydrogenase (P04406 whole entry): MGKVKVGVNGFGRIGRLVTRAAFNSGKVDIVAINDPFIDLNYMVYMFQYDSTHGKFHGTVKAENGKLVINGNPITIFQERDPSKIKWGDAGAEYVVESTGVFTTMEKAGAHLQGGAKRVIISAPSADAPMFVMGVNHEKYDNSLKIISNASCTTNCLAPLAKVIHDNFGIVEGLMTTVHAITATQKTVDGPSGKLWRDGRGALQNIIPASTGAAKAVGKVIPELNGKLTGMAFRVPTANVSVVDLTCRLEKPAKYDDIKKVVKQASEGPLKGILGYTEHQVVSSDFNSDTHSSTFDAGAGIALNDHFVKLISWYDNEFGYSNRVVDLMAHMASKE

inhibition [4] [%] | inhibition [5] | IC50 [6] [nM] | IC50 [8] [nM] | IC50 [12] [nM] | Compound | IC50 [1] [nM] | selectivity ratio [2] | IC50 [3] [nM] | selectivity ratio [7] | selectivity ratio [9] | Activity [10] [µmol/min/mg] | IC50 [11] [nM] | IC50 [13] [nM] | IC50 [14] [nM] | IC50 [15] [nM] | Ratio IC50 [16] | Ratio IC50 [17] | inhibition [18] [%] | inhibition [19]
120 | inactive | 670 |  |  | COc1cccc2c1C(=O)C=C(Oc1ccc(F)cc1)C2=O | 3720 | 0.36 | 1340 | 1.99 |  |  |  |  |  |  |  |  |  | 
88 | inactive | 680 |  |  | COc1cccc2c1C(=O)C=C(Oc1ccccc1)C2=O | 5600 | 0.33 | 1850 | 2.74 |  |  |  |  |  |  |  |  |  | 
 |  |  |  |  | CCCCCCCCCCCCCCCCOP(=O)([O-])OCC[N+](C)(C)C [MILTEFOSINE] |  | 462 |  |  |  |  |  |  |  |  |  |  |  | 
0 | inactive | 730 |  |  | Cc1ccc(OC2=CC(=O)c3cc4ccccc4cc3C2=O)cc1 | 1160 | 0.11 | 130 | 0.17 |  |  |  |  |  |  |  |  |  | 
52 | inactive | 670 | 4060 |  | COc1cccc2c1C(=O)C=C(Oc1ccc(NC(C)=O)cc1)C2=O | 4770 | 1.02 | 4890 | 7.3 | 1.2 |  |  |  |  |  |  |  |  | 
80 | inactive | 4060 | 3910 |  | O=C1C=C(Oc2ccc(F)cc2)C(=O)c2ccccc21 | 1820 | 2.47 | 4510 | 1.11 | 1.15 |  |  |  |  |  |  |  |  | 
 | inactive | 4760 |  | 1340 | COc1cccc2c1C(=O)C(Oc1ccc(F)cc1)=CC2=O | 5970 | 0.13 | 770 | 0.16 |  | 0.053 | 9920 | 11900 | 1730 | 2700 | 6.87 | 4.4 | 40 | Active
128 | inactive | 1370 |  |  | O=C1C=C(Oc2ccc(F)cc2)C(=O)c2c(O)cccc21 | 1330 | 0.55 | 740 | 0.54 |  |  |  |  |  |  |  |  |  | 
68 | inactive | 2400 | 4170 |  | CC(=O)Nc1ccc(OC2=CC(=O)c3ccccc3C2=O)cc1 | 4040 | 0.83 | 3350 | 1.39 | 0.8 |  |  |  |  |  |  |  |  | 
40 | inactive | 550 |  |  | COc1cccc2c1C(=O)C=C(Oc1ccc(C)cc1)C2=O | 2640 | 0.57 | 1490 | 2.71 |  |  |  |  |  |  |  |  |  | 
44 | inactive | 640 |  |  | COc1ccc(OC2=CC(=O)c3c(OC)cccc3C2=O)cc1 | 3090 | 0.51 | 1580 | 2.46 |  |  |  |  |  |  |  |  |  | 
48 | inactive | 650 |  |  | CC(=O)Nc1ccc(OC2=CC(=O)c3cccc(O)c3C2=O)cc1 | 2330 | 0.07 | 150 | 0.24 |  |  |  |  |  |  |  |  |  | 
136 | inactive | 2690 |  |  | O=C1C(Oc2ccc(F)cc2)=CC(=O)c2c(O)cccc21 | 2990 | 0.47 | 1410 | 0.52 |  |  |  |  |  |  |  |  |  | 
76 | inactive | 1710 |  |  | COc1ccc(OC2=CC(=O)c3cccc(O)c3C2=O)cc1 | 3130 | 0.33 | 1040 | 0.61 |  |  |  |  |  |  |  |  |  | 
68 |  |  |  |  | O=C1C=C(Oc2ccccc2)C(=O)c2cc3ccccc3cc21 |  |  |  |  |  |  |  |  |  |  |  |  |  | 
40 | inactive | 2370 |  |  | Cc1ccc(OC2=CC(=O)c3c(O)cccc3C2=O)cc1 | 5460 | 0.19 | 1030 | 0.44 |  |  |  |  |  |  |  |  |  | 

inhibition [4] [%] | inhibition [5] | IC50 [6] [nM] | IC50 [8] [nM] | IC50 [12] [nM] | Compound | IC50 [1] [nM] | selectivity ratio [2] | IC50 [3] [nM] | selectivity ratio [7] | selectivity ratio [9] | Activity [10] [µmol/min/mg] | IC50 [11] [nM] | IC50 [13] [nM] | IC50 [14] [nM] | IC50 [15] [nM] | Ratio IC50 [16] | Ratio IC50 [17] | inhibition [18] [%] | inhibition [19]
32 | inactive | 1210 |  |  | O=C1C=C(Oc2ccc(F)cc2)C(=O)c2cc3ccccc3cc21 | 2140 | 0.5 | 1070 | 0.88 |  |  |  |  |  |  |  |  |  | 
90 | inactive | 1210 |  |  | CC(=O)Nc1ccc(OC2=CC(=O)c3cc4ccccc4cc3C2=O)cc1 | 3250 | 0.06 | 190 | 0.16 |  |  |  |  |  |  |  |  |  | 
44 | inactive | 2580 | 7390 |  | Cc1ccc(OC2=CC(=O)c3cccc(O)c3C2=O)cc1 | 2990 | 1.34 | 4030 | 1.56 | 0.54 |  |  |  |  |  |  |  |  | 
24 | inactive | 2280 | 1620 |  | Cc1ccc(OC2=CC(=O)c3ccccc3C2=O)cc1 | 3410 | 1.12 | 3820 | 1.67 | 2.35 |  |  |  |  |  |  |  |  | 
84 | inactive | 850 |  |  | O=C1C=C(Oc2ccccc2)C(=O)c2c(O)cccc21 | 2960 | 0.51 | 1500 | 1.76 |  |  |  |  |  |  |  |  |  | 
72 | inactive | 1760 |  |  | COc1cccc2c1C(=O)C(Oc1ccccc1)=CC2=O | 13100 | 0.05 | 640 | 0.36 |  |  |  |  |  |  |  |  |  | 
0 | inactive | 2170 |  |  | CC(=O)Nc1ccc(OC2=CC(=O)c3c(O)cccc3C2=O)cc1 | 3800 | 0.15 | 590 | 0.27 |  |  |  |  |  |  |  |  |  | 
48 | inactive | 6030 |  |  | COc1ccc(OC2=CC(=O)c3cccc(OC)c3C2=O)cc1 | 22500 | 0.05 | 1090 | 0.18 |  |  |  |  |  |  |  |  |  | 
 |  |  |  |  | Nc1nc(N)nc(Nc2ccc([As]3SCC(CO)S3)cc2)n1 (centres undefined) [MELARSOPROL] |  |  |  | 1830 |  |  |  |  |  |  |  |  |  | 
 |  |  |  |  | O=C(Cn1ccnc1[N+](=O)[O-])NCc1ccccc1 [BENZNIDAZOLE] |  |  | > 384000 |  |  |  |  |  |  |  |  |  |  | 
28 | inactive | 2430 | 4170 |  | COc1ccc(OC2=CC(=O)c3ccccc3C2=O)cc1 | 5320 | 1.15 | 6100 | 2.51 | 1.46 |  |  |  |  |  |  |  |  | 
88 | inactive | 4430 |  | 2410 | O=C1C(Oc2ccccc2)=CC(=O)c2c(O)cccc21 | 8410 | 0.03 | 260 | 0.06 |  |  | 11600 | 15000 | 2520 | 2420 | 5.96 | 6.2 | 40 | Active
20 | inactive | 2180 |  |  | COc1cccc2c1C(=O)C(Oc1ccc(C)cc1)=CC2=O | 10900 | 0.07 | 750 | 0.34 |  |  |  |  |  |  |  |  |  | 
 |  |  |  |  | COc1cc([C@@H]2c3cc4c(cc3[C@H](O)[C@H]3COC(=O)[C@H]23)OCO4)cc(OC)c1OC [PODOFILOX] |  |  | 2 |  |  |  |  |  |  |  |  |  |  | 
24 | inactive | 1440 |  |  | COc1ccc(OC2=CC(=O)c3c(O)cccc3C2=O)cc1 | 2110 | 0.5 | 1040 | 0.73 |  |  |  |  |  |  |  |  |  | 
64 | inactive | 4150 |  |  | COc1cccc2c1C(=O)C(Oc1ccc(NC(C)=O)cc1)=CC2=O | 5870 | 0.11 | 650 | 0.16 |  |  |  |  |  |  |  |  |  | 
